ChEMBL document CHEMBL1146865, “Synthesis and antifungal activity of a novel series of alkyldimethylamine cyanoboranes and their derivatives” (J Med Chem, 2006)
Values after ≈ are worked out from the molar mass of the structure shown.

How the values were obtained:
Candida albicans [1] = assay: microbe, parasite or virus in culture; assay type: functional
Description: Antifungal activity against Candida albicans 615

Candida albicans [2] = assay: microbe, parasite or virus in culture; assay type: functional; remark: listed apart in the source
Description: Antifungal activity against Candida albicans 607

Candida albicans [3] = assay: microbe, parasite or virus in culture; assay type: functional; conditions: CBS 562
Description: Antifungal activity against Candida albicans CBS 562

Aspergillus fumigatus = assay: microbe, parasite or virus in culture; assay type: functional; conditions: ATCC 64026
Description: Antifungal activity against Aspergillus fumigatus ATCC 64026

Nakaseomyces glabratus [4] = assay: microbe, parasite or virus in culture; assay type: functional
Description: Antifungal activity against Candida glabrata 578

Pichia kudriavzevii [5] = assay: microbe, parasite or virus in culture; assay type: functional
Description: Antifungal activity against Candida krusei 603

Nakaseomyces glabratus [6] = assay: microbe, parasite or virus in culture; assay type: functional; remark: listed apart in the source
Description: Antifungal activity against Candida glabrata 646

Nakaseomyces glabratus [7] = assay: microbe, parasite or virus in culture; assay type: functional; remark: listed apart in the source
Description: Antifungal activity against Candida glabrata 566

Nakaseomyces glabratus [8] = assay: microbe, parasite or virus in culture; assay type: functional; remark: listed apart in the source
Description: Antifungal activity against Candida glabrata 572

[9] = Toxicity in ICR mouse at 1 to 2 mg/ml, iv after 8 days; conditions: in vivo
Nakaseomyces glabratus [10] = assay: microbe, parasite or virus in culture; assay type: functional; remark: listed apart in the source
Description: Antifungal activity against Candida glabrata 648

Pichia kudriavzevii [11] = assay: microbe, parasite or virus in culture; assay type: functional; remark: listed apart in the source
Description: Antifungal activity against Candida krusei 638

SMILES	MIC (Candida albicans [1])	MIC (Candida albicans [2])	MIC (Candida albicans [3])	MIC (Aspergillus fumigatus)	MIC (Nakaseomyces glabratus [4])	MIC (Pichia kudriavzevii [5])	MIC (Nakaseomyces glabratus [6])	MIC (Nakaseomyces glabratus [7])	MIC (Nakaseomyces glabratus [8])	MTD at 192 h [9]	MIC (Nakaseomyces glabratus [10])	MIC (Pichia kudriavzevii [11])
CN(C)CCCCCCCCCCN(C)C.N#CBBr.N#CBBr	140 µM	140 µM	140 µM	–	–	–	–	–	–	–	–	–
BC#N.CN(C)C	> 5100 µM	> 5100 µM	5100 µM	> 5100 µM	–	–	–	–	–	–	–	–
CCCCCCCCCCCN(C)C.N#CB(Br)Br	39 µM	39 µM	39 µM	79 µM	40.4 µM	10.1 µM	20.2 µM	20.2 µM	40.4 µM	73.1 µmol/kg	20.2 µM	10.1 µM
CN(C)CCCCCCCCCCN(C)C.N#CB(Br)Br.N#CB(Br)Br	104 µM	104 µM	104 µM	–	–	–	–	–	–	–	–	–
BC(=O)O.BC(=O)O.CN(C)CCCCCCCCCCN(C)C	907 µM	188 µM	188 µM	–	–	–	–	–	–	–	–	–
CCCCCCCCCCCN(C)C.N#CBF	64 µM	64 µM	64 µM	129 µM	–	–	–	–	–	–	–	–
CCCCCCCCCCCN(C)C.N#CBBr	49 µM	49 µM	49 µM	131 µM	–	–	–	–	–	–	–	–
C[C@@H]1[C@H](O)[C@@H](C)/C=C/C=C/C=C/C=C/C=C/C=C/C=C/[C@H](O[C@@H]2O[C@H](C)[C@@H](O)[C@H](N)[C@@H]2O)C[C@@H]2O[C@](O)(C[C@@H](O)C[C@@H](O)[C@H](O)CC[C@@H](O)C[C@@H](O)CC(=O)O[C@H]1C)C[C@H](O)[C@H]2C(=O)O [AMPHOTERICIN B]	0.27 µM (≈ 0.25 µg/mL)	0.27 µM (≈ 0.25 µg/mL)	0.54 µM (≈ 0.499 µg/mL)	0.5 µM (≈ 0.462 µg/mL)	2.14 µM (≈ 1.98 µg/mL)	4.32 µM (≈ 3.99 µg/mL)	0.41 µM (≈ 0.379 µg/mL)	0.13 µM (≈ 0.12 µg/mL)	1.07 µM (≈ 0.989 µg/mL)	2.6 µmol/kg	0.82 µM (≈ 0.758 µg/mL)	4.32 µM (≈ 3.99 µg/mL)
CN(C)C.N#CB(Br)Br [DIBROMOBORANECARBONITRILE; TRIMETHYLAMINE]	> 1970 µM	> 1970 µM	1970 µM	–	–	–	–	–	–	–	–	–
BC#N.CCCCCCCCCCCCN(C)C [DODECYLDIMETHYLAMINE CYANOBORANE]	61 µM	61 µM	61 µM	–	–	–	–	–	–	–	–	–
OC(Cn1cncn1)(Cn1cncn1)c1ccc(F)cc1F [FLUCONAZOLE]	1.6 µM (≈ 0.49 µg/mL)	1.6 µM (≈ 0.49 µg/mL)	1.6 µM (≈ 0.49 µg/mL)	> 208 µM	> 836 µM	104 µM (≈ 32 µg/mL)	52.2 µM (≈ 16 µg/mL)	–	> 836 µM	–	–	104 µM (≈ 32 µg/mL)
